Experimental data as given in ChEMBL document CHEMBL3785034, “New isosteroidal alkaloids with tracheal relaxant effect from the bulbs of Fritillaria pallidiflora Schrenk” (Bioorg Med Chem Lett, 2016).

Assays:
[1] = system: Trachea; assay: Inhibition of Ach-induced contraction in Sprague-Dawley rat trachea assessed as maximal diastolic rate at 10^-7 mol/L (reference value: 14.2 +/- 2.3%); type: functional; parameters: scale not given: the % may be the effect or the level left
[2] = system: Trachea; assay: Inhibition of Ach-induced contraction in Sprague-Dawley rat trachea at 1 to 100 umol/L; type: functional, tissue-based; conditions: read-out: pA2 (converted)
[3] = system: Trachea; assay: Inhibition of KCl-induced contraction in Sprague-Dawley rat trachea assessed as tracheal tension at 10^-9 mol/L (reference value: 2.16 to 2.59 g); type: functional
[4] = system: Trachea; assay: Inhibition of KCl-induced contraction in Sprague-Dawley rat trachea assessed as maximal diastolic rate at 10^-5 mol/L (reference value: 6 +/- 0.6%); type: functional; parameters: scale not given: the % may be the effect or the level left
[5] = system: Trachea; assay: Inhibition of Ach-induced contraction in Sprague-Dawley rat trachea assessed as maximal diastolic rate at 10^-5 mol/L (reference value: 15.9 +/- 2.6%); type: functional; parameters: scale not given: the % may be the effect or the level left
[6] = system: Trachea; assay: Inhibition of KCl-induced contraction in Sprague-Dawley rat trachea assessed as tracheal tension at 10^-8 mol/L (reference value: 2.16 to 2.59 g); type: functional
[7] = system: Trachea; assay: Inhibition of KCl-induced contraction in Sprague-Dawley rat trachea assessed as tracheal tension at 10^-7 mol/L (reference value: 2.16 to 2.59 g); type: functional
[8] = system: Trachea; assay: Inhibition of KCl-induced contraction in Sprague-Dawley rat trachea assessed as maximal diastolic rate at 10^-7 mol/L (reference value: 7 +/- 0.8%); type: functional; parameters: scale not given: the % may be the effect or the level left
[9] = system: Trachea; assay: Inhibition of KCl-induced contraction in Sprague-Dawley rat trachea assessed as maximal diastolic rate at 10^-8 mol/L (reference value: 7 +/- 0.3%); type: functional; parameters: scale not given: the % may be the effect or the level left
[10] = system: Trachea; assay: Inhibition of KCl-induced contraction in Sprague-Dawley rat trachea assessed as tracheal tension at 10^-5 mol/L (reference value: 2.16 to 2.59 g); type: functional
[11] = system: Trachea; assay: Inhibition of Ach-induced contraction in Sprague-Dawley rat trachea assessed as tracheal tension at 10^-6 mol/L (reference value: 0.63 to 0.98 g); type: functional
[12] = system: Trachea; assay: Inhibition of KCl-induced contraction in Sprague-Dawley rat trachea assessed as tracheal tension at 10^-6 mol/L (reference value: 2.16 to 2.59 g); type: functional
[13] = system: Trachea; assay: Inhibition of Ach-induced contraction in Sprague-Dawley rat trachea assessed as tracheal tension at 10^-9 mol/L (reference value: 0.63 to 0.98g); type: functional
[14] = system: Trachea; assay: Inhibition of Ach-induced contraction in Sprague-Dawley rat trachea; type: functional, tissue-based
[15] = system: Trachea; assay: Inhibition of KCl-induced contraction in Sprague-Dawley rat trachea assessed as tracheal tension at 10^-4 mol/L (reference value: 2.16 to 2.59 g); type: functional
[16] = system: Trachea; assay: Inhibition of Ach-induced contraction in Sprague-Dawley rat trachea assessed as tracheal tension at 10^-8 mol/L (reference value: 0.63 to 0.98 g); type: functional
[17] = system: Trachea; assay: Inhibition of Ach-induced contraction in Sprague-Dawley rat trachea assessed as maximal diastolic rate at 10^-6 mol/L (reference value: 15.9 +/- 3%); type: functional; parameters: scale not given: the % may be the effect or the level left
[18] = system: Trachea; assay: Inhibition of KCl-induced contraction in Sprague-Dawley rat trachea assessed as maximal diastolic rate at 10^-9 mol/L (reference value: 5.9 +/- 1.8%); type: functional; parameters: scale not given: the % may be the effect or the level left
[19] = system: Trachea; assay: Inhibition of Ach-induced contraction in Sprague-Dawley rat trachea assessed as tracheal tension at 10^-7 mol/L (reference value: 0.63 to 0.98 g); type: functional
[20] = system: Trachea; assay: Inhibition of Ach-induced contraction in Sprague-Dawley rat trachea assessed as maximal diastolic rate at 10^-8 mol/L (reference value: 14 +/- 1.8%); type: functional; parameters: scale not given: the % may be the effect or the level left
[21] = system: Trachea; assay: Inhibition of Ach-induced contraction in Sprague-Dawley rat trachea assessed as tracheal tension at 10^-5 mol/L (reference value: 0.63 to 0.98 g); type: functional
[22] = system: Trachea; assay: Inhibition of Ach-induced contraction in Sprague-Dawley rat trachea assessed as tracheal tension at 10^-4 mol/L (reference value: 0.63 to 0.98 g); type: functional
[23] = system: Trachea; assay: Inhibition of Ach-induced contraction in Sprague-Dawley rat trachea assessed as maximal diastolic rate at 10^-9 mol/L (reference value: 12.7 +/- 2.8%); type: functional; parameters: scale not given: the % may be the effect or the level left
[24] = system: Trachea; assay: Inhibition of Ach-induced contraction in Sprague-Dawley rat trachea assessed as maximal diastolic rate at 10^-4 mol/L (reference value: 15 +/- 4.2%); type: functional; parameters: scale not given: the % may be the effect or the level left
[25] = system: Trachea; assay: Inhibition of KCl-induced contraction in Sprague-Dawley rat trachea assessed as maximal diastolic rate at 10^-4 mol/L (reference value: 6.6 +/- 0.3%); type: functional; parameters: scale not given: the % may be the effect or the level left
[26] = system: Trachea; assay: Inhibition of KCl-induced contraction in Sprague-Dawley rat trachea assessed as maximal diastolic rate at 10^-6 mol/L (reference value: 6 +/- 1.2%); type: functional; parameters: scale not given: the % may be the effect or the level left

Row | Compound | Activity [1] | Activity [3] | Activity [4] | Activity [5] | Activity [6] | Activity [7] | Activity [8] | Activity [9] | Activity [10] | Activity [11] | Activity [12] | Activity [13] | Activity [15] | Activity [16] | Activity [17] | Activity [18] | Activity [19] | Activity [20] | Activity [21] | Activity [22] | also measured
1 | C[C@H]1CC[C@@H]2N(C1)C[C@H]1[C@@H]3C[C@H]4[C@@H](CC(=O)[C@H]5C[C@@H](O)CC[C@@]54C)[C@@H]3CC[C@H]1[C@]2(C)O [IMPERIALINE] | 35.3% | 2.44 g | 6.8% | 45.7% | 2.43 g | 2.44 g | 6% | 6.3% | 2.42 g | 0.5 g | 2.43 g | 0.58 g | 2.41 g | 0.55 g | 40.4% | 5.7% | 0.52 g | 28.1% | 0.49 g | 0.48 g | Kb [2]: 0.00389 µM; EC50 [14]: 4.4 µM; Activity [23]: 14.5%; Activity [24]: 50.7%; Activity [25]: 7.2%; Activity [26]: 6.4%
2 | C[C@H]1CC[C@H]2[C@@](C)(O)[C@@H]3CC[C@@H]4[C@@H](C[C@H]5[C@H]4CC(=O)[C@H]4C[C@@H](O)CC[C@@]45C)[C@@H]3C[N+]2([O-])C1 (stereo partly specified) | 27% | 2.3 g | 6.1% | 21.6% | 2.29 g | 2.3 g | 6.7% | 6.9% | 2.31 g | 0.57 g | 2.32 g | 0.61 g | 2.31 g | 0.6 g | 25.8% | 6.4% | 0.56 g | 17.2% | 0.58 g | 0.55 g | Activity [23]: 15.6%; Activity [24]: 31.3%; Activity [25]: 5.7%; Activity [26]: 5.5%
3 | C[C@H]1CC[C@@H]2N(C1)C[C@H]1[C@@H]3C[C@H]4[C@@H](CC(=O)[C@H]5C[C@@H](O[C@@H]6O[C@H](CO)[C@@H](O)[C@H](O)[C@H]6O)CC[C@@]54C)[C@@H]3CC[C@H]1[C@]2(C)O | 17.7% | 2.4 g | 4.5% | 22.7% | 2.45 g | 2.45 g | 5.2% | 5.2% | 2.47 g | 0.74 g | 2.45 g | 0.81 g | 2.52 g | 0.78 g | 20.5% | 7.5% | 0.76 g | 15.2% | 0.71 g | -0.13 g | Activity [23]: 12.6%; Activity [24]: 129.3%; Activity [25]: 3%; Activity [26]: 5.3%
4 | Cn1c(=O)c2[nH]cnc2n(C)c1=O [AMINOPHYLLINE] | – | – | – | – | – | – | – | – | – | – | – | – | – | – | – | – | – | – | – | – | Kb [2]: 0.0479 µM; EC50 [14]: 0.05 µM
5 | Cc1c([C@H](C)[C@@H]2NC[C@@H](C)C[C@H]2O)ccc2c1C[C@H]1[C@H]2CC(=O)[C@H]2C[C@@H](O)CC[C@@]21C | 18.9% | 2.23 g | 8% | 24.5% | 2.25 g | 2.22 g | 6.1% | 4.8% | 2.18 g | 0.5 g | 2.2 g | 0.54 g | 2.04 g | 0.53 g | 21.3% | 5.7% | 0.52 g | 16% | 0.48 g | -0.11 g | Activity [23]: 13.6%; Activity [24]: 115.2%; Activity [25]: 13.9%; Activity [26]: 7.2%
6 | C[C@H]1CC[C@H]2N(C1)C[C@H]1[C@@H]3C[C@H]4[C@@H](CC(=O)[C@H]5C[C@@H](O[C@@H]6O[C@H](CO)[C@@H](O)[C@H](O)[C@H]6O)CC[C@@]54C)[C@@H]3CC[C@@H]1[C@@]2(C)O | 14.9% | 2.33 g | 6.4% | 15.9% | 2.37 g | 2.36 g | 6.4% | 6.2% | 2.37 g | 0.84 g | 2.34 g | 0.85 g | 2.33 g | 0.84 g | 15% | 7.8% | 0.83 g | 13.8% | 0.83 g | 0.84 g | Kb [2]: 2.63 µM; EC50 [14]: 3 µM; Activity [23]: 12.2%; Activity [24]: 15.6%; Activity [25]: 8.3%; Activity [26]: 7.5%
7 | COC(=O)C1=C(C)NC(C)=C(C(=O)OC)C1c1ccccc1[N+](=O)[O-] [NIFEDIPINE] | – | – | – | – | – | – | – | – | – | – | – | – | – | – | – | – | – | – | – | – | Kb [2]: 6.03 µM; EC50 [14]: 6.5 µM
8 | C[C@@H]1CN[C@H]2[C@@H](C)[C@@]3(CC[C@]4(O)[C@@H]5CC(=O)[C@H]6C[C@@H](O)CC[C@]6(C)[C@H]5C[C@]45O[C@]53C)O[C@@H]2C1 | 23% | 2.34 g | 3.3% | 30.2% | 2.37 g | 2.36 g | 5.6% | 5.1% | 2.42 g | 0.52 g | 2.39 g | 0.56 g | 2.45 g | 0.55 g | 27.1% | 6.3% | 0.53 g | 18.3% | 0.5 g | 0.53 g | Activity [23]: 15.2%; Activity [24]: 23.4%; Activity [25]: 2.1%; Activity [26]: 4.5%
9 | C[C@H]1CC[C@H]2[C@@H](C)[C@H]3CC[C@@H]4[C@@H](C[C@H]5[C@H]4CC(=O)[C@H]4C[C@@H](O)CC[C@@]45C)[C@@H]3CN2C1 | 17.9% | 2.16 g | 3.2% | 19.5% | 2.18 g | 2.2 g | 3.9% | 5.3% | 2.2 g | 0.55 g | 2.2 g | 0.59 g | 2.21 g | 0.56 g | 19.8% | 5.7% | 0.56 g | 16.3% | 0.55 g | 0.54 g | Activity [23]: 12.2%; Activity [24]: 20.9%; Activity [25]: 2.9%; Activity [26]: 3.2%
